Values quoted from earlier work as cited in patent US20240238196A1 (Shilpa Medicare Limited, priority 2021, published 2024).

SMILES: O=C(NC[C@H]1CN(c2ccc(N3CCOCC3=O)cc2)C(=O)O1)c1ccc(Cl)s1 [Rivaroxaban, 5-Chloro-N-({(5S)-2-oxo-3-[4-(3-oxo-4-morpholinyl)phenyl]-1,3-oxazolidin5-yl}methyl)-2-thiophenecarboxamide]
- Solubility in organic solvents (organic solvents, slightly soluble, according to CHMP assessment report for Xarelto): 1000 to 10000 µg/mL
- Solubility in water (in words) (water): practically insoluble
